In patent US20030232101A1, “Topical formulations of resorcinols and cannibinoids and methods of use” (Immugen Pharmaceuticals, Inc., priority 2002, published 2003):
Values after ≈ are worked out from the molar mass of the structure shown.

Legend:
Assay type in all cases: cell-based
HIV-1 = assay: HeLa CD4 LTR β-gal HIV-1 attachment assay (Experimental Example 1); details: Human immunodeficiency virus 1, HeLa
HeLa CD4 LTR β-gal cells [1] = assay: Compound toxicity in the attachment assay, sister plates, MTS dye reduction
Experimental: (§1) At assay termination the assay plates were stained with the soluble tetrazolium-based dye MTS (CellTiter96® Reagent Promega) to determine cell viability and quantify compound toxicity. MTS is metabolized by the mitochondria enzymes of metabolically active cells to a soluble formazan product, allowing the rapid quantitative analysis cell viability and compound cytotoxicity. […] At termination of the assay 20 μL of MTS reagent was added per well and incubated for 4 h at 37° C. Adhesive plate sealers were used in place of the lids, the sealed plate was inverted several times to mix the soluble formazan product and the plate was read spectrophotometrically at 490 nm with a Molecular Devices Vmax plate reader.
The attachment assay was performed with the HeLa CD4 LTR β-gal cells available from the AIDS Research and Reference Reagent Repository. […] HeLa CD4 LTR β-gal cells express cell surface CD4 and contain an LTR β-galactosidase reporter construct. Upon infection either the Tat protein incorporated into the virion or new Tat produced following virus integration and transcription trans-activates the LTR β-gal reporter, leading to expression of the β-galactosidase enzyme. HeLa CD4 LTR β-gal cells are routinely cultured with the required selection antibiotics and screened for mycoplasma contamination. Twenty-four h prior to initiation of the assay cells were trypsinized, counted and 1×10^4 cells placed in a 0.2 cm well in media without selection antibiotics. […] A known titer of virus was then added to the wells and the incubation continued for 1 h. At the end of the incubation the wells were washed 6 times with media and the culture continued for 48 h. At 48 h the wells were washed one time with PBS and β-galactosidase enzyme expression determined by chemiluminescence per manufacturers instructions (Tropix Gal-screen™, Tropix, Bedford, Mass.). Compound toxicity was monitored on sister plates using MTS dye reduction.

[2] = test system: interaction of HIV gp 120 with CD4 (HeLa CD4 LTR β-gal / HL2/3 cell fusion); assay: HeLa CD4 LTR β-gal/HL2/3 HIV-1 fusion assay (Experimental Example 1); details: Human immunodeficiency virus 1, HeLa, 48 h, read-out: Antiviral Activity IC50
Source text: This assay uses the HeLa CD4 LTR β-gal and HL2-3 cells available from the AIDS Research and Reference Reagent Repository. The fusion assay utilizes HeLa CD4 LTR β-gal cells with HL2/3 cells as a fusion partner via the interaction of HIV gp 120 with CD4. HL2/3 cells express HIV-1 Env on their cell surface and contain an HIV-1 Tat expression cassette. Upon syncytium formation and plasma membrane fusion, cytoplasmic mixing of the HL2/3 and HeLa CD4 LTR b-gal cell contents results in the transactivation of the LTR and β-Galactosidase expression is then directly related to […] cell membrane fusion. Thus, these two mechanistic assays can be used to confirm and identify a virus entry-based target of the compound. Additionally, because the attachment assay uses cell-free virus this assay can be used to show applicability to cell-free virus transmission.
(§2) Twenty-four h prior to initiation of the assay cells were trypsinized, counted and 5×10^3 cells placed in a 0.2 cm well in media without selection antibiotics. To initiate the fusion assay HeLa CD4 LTR β-gal (5×10^3 cells per 0.2 cm well) were incubated with compound for 1 h at 37° C. HL2/3 cells (5×10^3) were added to the 0.2 cm well and the incubation continued for 48 h. At 48 h the wells were washed 1 time with PBS and β-galactosidase enzyme expression determined by chemiluminescence per manufacturers instructions (Tropix Gal-screen™, Tropix, Bedford, Mass.). Compound toxicity was monitored on sister plates using MTS dye reduction.
In addition to assessing inhibition of attachment with HeLa CD4 LTR β-gal cells a virus fusion assay was perfoed using HeLa CD4 LTR β-gal and HL2/3 cells. No timed addition of compound was employed, but rather the assay was performed to verify the effects of the compounds on the HeLa CD4 LTR β-gal cells β-galactosidase expression.

HeLa CD4 LTR β-gal cells [3] = assay: Compound toxicity in the fusion assay, sister plates, MTS dye reduction; details: no timed addition; 48 h
Experimental: as §1, §2

IIIB strain of HIV-1 = assay: Virus attachment assay, HeLa CD4 LTR β-gal cells (Experimental Example 2); details: Human immunodeficiency virus 1, IIIB, HeLa, read-out: Attachment Assay IC50
Experimental: (§3) This assay detects compounds that block virus attachment using HeLa CD4 LTR β-gal cells. HeLa CD4 LTR β-gal cells were cultured with selection antibiotics. Twenty-four h prior to initiation of the assay, the cells were trypsinized, counted and plated in a 0.2 cm well in media without selection antibiotics. At 24 h media is removed and compound in media placed on the cells and incubated for 15 min at 37° C. A known titer of the IIIB strain of HIV-1 was then added to the wells and the incubation continued for 1 to 2 h. At the end of the incubation the wells were washed 2 times with media and the culture continued for 40 to 48 h. At termination of the assay, media is removed and β-galactosidase enzyme expression determined by chemiluminescence per manufacturer's instructions (Tropix Gal-screen, Bedford Mass.). Compound toxicity is monitored on a sister plate by XTT or MTS dye reduction. All determinations are performed in triplicate with serial_Log10 dilution of the test materials.

HeLa CD4 LTR β-gal cells [4] = assay: Compound toxicity in the attachment assay, sister plate, XTT or MTS (Example 2)
Experimental: as §3, with “materials. The virus adsorption interval of 1 to 2 h was sufficiently short that AZT, which requires phosphorylation to achieve its active tri-phosphate form (AZT-TTP), is not active in this assay.” for “materials.”

[5] = test system: cell-to-cell fusion mediated by HIV-1 Env and CD4; assay: Fusion assay, HeLa CD4 LTR β-gal and HL2/3 cells (Experimental Example 2); details: Human immunodeficiency virus 1, HL2/3, read-out: Fusion Assay IC50
Experimental: (§4) The fusion assay assesses the ability of compounds to block cell-to-cell fusion mediated by HIV-1 Env and CD4 expressed on separate cells. This assay is sensitive to inhibitors of both the gp 120/CD4 interaction and inhibitors of the X4 coreceptor. HeLa CD4 LTR β-gal cells were plated in microtiter wells and diluted compounds are added and allowed to incubate at 37° C. for 1 hr prior to the addition of HL2/3 cells. The incubation was then continued for 40 to 48 h, after which fusion is monitored by measurement of β-galactosidase enzyme expression, detectable by chemiluminescence (Tropix Gal-screen, Tropix, Bedford, Mass.). Compound toxicity is monitored on a sister plate using XTT or MTS dye reduction. All determinations are performed in triplicate with serial_Log10 dilution of the test materials.

HeLa CD4 LTR β-gal cells [6] = assay: Compound toxicity in the fusion assay, sister plate, XTT or MTS (Example 2)
Experimental: as §4

COc1cc(-c2ccc(/N=N/c3ccc4c(S(=O)(=O)O)cc(S(=O)(=O)O)c(N)c4c3O)c(OC)c2)ccc1/N=N/c1ccc2c(S(=O)(=O)O)cc(S(=O)(=O)O)c(N)c2c1O [CSB, Chicago Sky Blue, reference compound]
IC50 (HIV-1; Experiment 1, pretreat 0 h): 1.1 µg/mL (≈ 1.22 µM) | IC50 (HIV-1; Experiment 1, pretreat 4 h): 1.71 µg/mL (≈ 1.89 µM) | IC50 (HIV-1; Experiment 1, pretreat 24 h): 1.3 µg/mL (≈ 1.44 µM) | IC50 (HIV-1; Experiment 2, pretreat 0 h): 0.17 µg/mL (≈ 0.188 µM) | IC50 (HIV-1; Experiment 2, pretreat 4 h): 2.11 µg/mL (≈ 2.33 µM) | IC50 (HIV-1; Experiment 2, pretreat 24 h): 4.7 µg/mL (≈ 5.19 µM) | TC50 (HeLa CD4 LTR β-gal cells [1]; Experiment 1, pretreat 0 h): >10 µg/mL | TC50 (HeLa CD4 LTR β-gal cells [1]; Experiment 1, pretreat 4 h): >10 µg/mL | TC50 (HeLa CD4 LTR β-gal cells [1]; Experiment 1, pretreat 24 h): >10 µg/mL | TC50 (HeLa CD4 LTR β-gal cells [1]; Experiment 2, pretreat 0 h): >10 µg/mL | TC50 (HeLa CD4 LTR β-gal cells [1]; Experiment 2, pretreat 4 h): >10 µg/mL | TC50 (HeLa CD4 LTR β-gal cells [1]; Experiment 2, pretreat 24 h): >10 µg/mL | IC50 [2]: 1.75 µg/mL (≈ 1.93 µM) | TC50 (HeLa CD4 LTR β-gal cells [3]): >10 µg/mL | IC50 (IIIB strain of HIV-1): 0.63 µg/mL (≈ 0.696 µM) | Attachment Assay TC50 (HeLa CD4 LTR β-gal cells [4]): >10 µg/mL | IC50 [5]: 0.41 µg/mL (≈ 0.453 µM) | Fusion Assay TC50 (HeLa CD4 LTR β-gal cells [6]): >100 µg/mL
